From patent US8686177B2, “LPA receptor agonists and antagonists” (RxBio, Inc., priority 2008, dated 2014)

Columns and labels:
[1] = molecular target: T1, LPA1 receptor (Homo sapiens, UniProt Q92633); assay: LPA-induced Ca2+ transients in RH7777 cells stably expressing LPA1 (agonism/antagonism); format: cell-based; settings: RH7777 cells expressing LPA1, compared to LPA 18:1
T1 construct: expressed in transfected cells
Experimental: (§1) RH7777 cells stably expressing either LPA1, LPA2 or LPA3 or PC-3 cells were plated on poly-D lysine-coated black wall clear bottom 96-well plates (Becton Dickinson, San Jose, Calif.) with a density of 50000 cells/well, and cultured overnight. The culture medium (DMEM containing 10% FBS) was then replaced with modified Krebs solution (120 mM NaCl, 5 mM KCl, 0.62 mM MgSO4, 1.8 mM CaCl2, 10 mM HEPES, 6 mM glucose, pH 7.4) and the cells were serum starved for 6-8 hours (12 h for PC-3 cells). […] Changes in intracellular Ca^2+ concentration were monitored by measuring the ratio of emitted light intensity at 520 nm in response to excitation by 340 nm and 380 nm wavelength lights, respectively. Each well was monitored for 80-120 seconds. […] Time courses were recorded using the SoftMax Pro software (Molecular Devices, Sunnyvale, Calif.). Ca^+ transients were quantified automatically by calculating the difference between maximum and baseline ratio values for each well.
(§2) These new analogs were evaluated as agonists and antagonists with respect to LPA1-3. […]

[2] = test system: small intestine crypts of irradiated mice; assay: Crypt survival in whole-body gamma-irradiated mice (Example 9); format: in vivo
Experimental: ICR strain male mice (Harlan Laboratories, body weight 30-33 g) on a 12 h light/dark cycle and otherwise maintained on a standard laboratory chow ad libitum were starved for 16 h prior to treatment. WBI was done with a 12 Gy or 15 Gy dose using Cs^137 source at a dose rate of 1.9 Gy per minute. Groups of four mice received either 250 μl of 1 mM LPA complexed with 100 μM BSA dissolved in Hanks basal salt solution or the BSA vehicle alone 2 h prior to irradiation.
For detection of the apoptotic bodies, mice were euthanized with carbon dioxide inhalation 4 h after irradiation and the small intestine was dissected and fixed in neutral phosphate buffered isotonic 10% formalin. Four ˜3- to 4-mm long segments from the small intestine were embedded in paraffin, 5 μM thick sections were cut and stained with hematoxilin and eosin. The number of surviving crypts was counted 3.5 days after irradiation.

[3] = molecular target: T2, LPA2 receptor (Homo sapiens, UniProt Q9HBW0); assay: LPA-induced Ca2+ transients in RH7777 cells stably expressing LPA2 (agonism/antagonism); format: cell-based; settings: RH7777 cells expressing LPA2, compared to LPA 18:1
T2 construct: expressed in transfected cells
Experimental: as §1, §2

[4] = test system: IEC-6 cells; assay: Camptothecin-induced DNA fragmentation in IEC-6 cells (Example 8, Cell Death Detection ELISA); format: cell-based; settings: 20 μM camptothecin; LPA and FAP 12 at 10 μM
Experimental: IEC-6 cells were grown in DMEM medium supplemented with 5% fetal bovine serum, insulin (10 μg/ml), gentamycin sulfate (50 μg/ml), and incubated at 37° C. in a humidified 90% air-10% CO2 atmosphere. Medium was changed every other day. Sub-confluent cells were washed twice and replaced by DMEM without serum the night before experiments.
Damage and IEC-6 cell apoptosis was induced via either γ-irradiation or chemotherapy. 20 Gy single dose of [^137Cs] source γ-irradiation was used in all experiments. […] In some experiments, LPA was added at different times before or after irradiation. Treatment with 20 μM camptothecin of IEC-6 cells induces DNA fragmentation as measured by the ELISA assay at 16 h after treatment. DNA fragmentation was quantified using the Cell Death Detection ELISA kit from Boehringer (Indianapolis, Ind.) according to the instructions of the manufacturer. Samples were run in triplicate. A duplicate of the sample was used to quantify protein concentration using the BCA kit from Pierce (Rockford, Ill.). DNA fragmentation was expressed as absorbance units per μg protein per minute.

[5] = molecular target: T3, LPA3 receptor (Homo sapiens, UniProt Q9UBY5); assay: LPA-induced Ca2+ transients in RH7777 cells stably expressing LPA3 (agonism/antagonism); format: cell-based; settings: RH7777 cells expressing LPA3, compared to LPA 18:1
T3 construct: expressed in transfected cells
T3 sequence (Q9UBY5 1-353): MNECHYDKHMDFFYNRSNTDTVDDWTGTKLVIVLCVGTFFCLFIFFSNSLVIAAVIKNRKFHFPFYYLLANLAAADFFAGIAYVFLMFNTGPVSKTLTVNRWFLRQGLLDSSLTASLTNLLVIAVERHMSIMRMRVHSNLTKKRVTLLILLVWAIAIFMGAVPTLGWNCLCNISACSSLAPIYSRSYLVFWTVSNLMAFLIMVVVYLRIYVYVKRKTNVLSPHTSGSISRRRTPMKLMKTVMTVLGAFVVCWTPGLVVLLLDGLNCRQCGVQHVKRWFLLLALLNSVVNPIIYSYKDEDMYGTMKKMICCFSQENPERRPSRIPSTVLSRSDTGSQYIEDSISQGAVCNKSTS
Experimental: as §1, §2

[6] = test system: LPA receptors (LPA1/2/3); assay: LPA receptor agonist/antagonist activity (Table 4); format: cell-based
Experimental: Compounds were tested for their ability to induce or inhibit LPA-induced calcium transients in RH7777 rat hepatoma cells stably expressing LPA1, LPA2, and LPA3 receptors and in PC-3 that express LPA1-3 endogenously, using a FlexStation II automated fluorometer (Molecular Devices, Sunnyvale, Calif.).
RH7777 cells stably expressing either LPA1, LPA2 or LPA3 or PC-3 cells were plated on poly-D lysine-coated black wall clear bottom 96-well plates (Becton Dickinson, San Jose, Calif.) with a density of 50000 cells/well, and cultured overnight. The culture medium (DMEM containing 10% FBS) was then replaced with modified Krebs solution (120 mM NaCl, 5 mM KCl, 0.62 mM MgSO4, 1.8 mM CaCl2, 10 mM HEPES, 6 mM glucose, pH 7.4) and the cells were serum starved for 6-8 hours (12 h for PC-3 cells). Cells were loaded with Fura-2 AM for 35 minutes in modified Krebs medium. The Fura-2 was removed before loading the plate in the FlexStation instrument by replacing the medium once again with 100 μl modified Krebs medium/well. Plates were incubated for 4 minutes in the instrument to allow for warming to 37° C. Changes in intracellular Ca^2+ concentration were monitored by measuring the ratio of emitted light intensity at 520 nm in response to excitation by 340 nm and 380 nm wavelength lights, respectively. Each well was monitored for 80-120 seconds. […] Time courses were recorded using the SoftMax Pro software (Molecular Devices, Sunnyvale, Calif.). Ca^+ transients were quantified automatically by calculating the difference between maximum and baseline ratio values for each well.

[7] = test system: IEC-6 cells; assay: DNA fragmentation assay in camptothecin-induced IEC-6 cells (Example 11, FIG. 7); format: cell-based; settings: 20 μM camptothecin, 15 min pre-treatment, 6 hours
Experimental: IEC-6 cells were obtained from the American Type Culture Collection (Manassas, Va.) and were grown in Dulbecco's modified Eagle medium (DMEM) supplemented with 10% fetal bovine serum, 10 μg/ml insulin, and 50 μg/ml gentamicin sulfate at 37° C. in a humidified 90% air/10% CO2 atmosphere. The medium was changed every other day. Cells between passage 15 and 21 were used for the experiments. Newly synthesized RxBio analogs at doses ranging from […] were used to pre-treat IEC-6 cells for 15 min. Apoptosis was induced by 20 μM camptothecin following the pre-treatment. DNA fragmentation was measured 6 hours after camptothecin treatment by enzyme-linked immunosorbent assay using the cell death detection ELISA^PLUS kit from Roche (Indianapolis, Ind.) following the instruction of the manufacturer. Briefly, cells were harvested and lysed in DNA lysis buffer for 30 min. Sample lysates were collected after centrifugation at 200 rpm for 10 min. 10 μl of supernatant was loaded individually in a 96-well streptavidin-coated plate and incubated with immunoreagents (anti-histone-biotin plus anti-DNA peroxidase conjugated antibody) on a shaker for 2 h. […] DNA absorbance was read at 405 nm in a microplate reader (PerkinElmer, Shelton, Conn.). Aliquots of samples were used to quantify protein concentration using the bicinchoninic acid kit (Pierce, Rockford, Ill.).

T2 sequence (Q9HBW0 whole entry): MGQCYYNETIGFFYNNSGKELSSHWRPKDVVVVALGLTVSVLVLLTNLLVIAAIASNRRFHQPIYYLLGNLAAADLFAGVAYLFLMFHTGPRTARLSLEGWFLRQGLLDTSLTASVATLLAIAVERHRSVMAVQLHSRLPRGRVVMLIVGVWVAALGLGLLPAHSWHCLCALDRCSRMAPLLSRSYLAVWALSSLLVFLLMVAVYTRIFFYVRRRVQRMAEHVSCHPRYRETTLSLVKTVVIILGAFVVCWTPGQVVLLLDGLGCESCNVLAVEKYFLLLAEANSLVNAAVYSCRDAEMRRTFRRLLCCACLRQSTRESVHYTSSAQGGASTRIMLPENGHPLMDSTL
T1 sequence (Q92633 whole entry): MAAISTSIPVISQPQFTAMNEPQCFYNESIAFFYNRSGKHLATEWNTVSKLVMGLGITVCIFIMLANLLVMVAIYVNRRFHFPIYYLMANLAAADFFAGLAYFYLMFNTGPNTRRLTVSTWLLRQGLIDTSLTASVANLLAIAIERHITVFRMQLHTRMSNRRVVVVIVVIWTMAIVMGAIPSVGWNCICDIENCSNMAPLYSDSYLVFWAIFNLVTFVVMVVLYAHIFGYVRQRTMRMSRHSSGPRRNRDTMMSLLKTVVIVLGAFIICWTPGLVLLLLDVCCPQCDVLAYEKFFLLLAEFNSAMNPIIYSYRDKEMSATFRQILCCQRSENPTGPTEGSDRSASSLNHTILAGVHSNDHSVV

| Molecule | Activity [6] | also measured |
| --- | --- | --- |
| CCCCCCCCC=CCCCCCCCCOP(O)(O)=S [8g, Thiophosphoric acid O-octadec-9-enyl ester] |  | ligand property at LPA1 (FIG. 2A) [1]: agonist; crypt survival ([2]; 200 μM into the stomach 2 h prior irradiation, FIG. 3): significantly (P>0.01) enhanced crypt survival; crypt survival, dose dependence ([2]; FIG. 4): dose-dependent enhancement of crypt survival; crypt survival in jejunum and ileum compared with LPA ([2]; γ-irradiated mice, FIG. 5): present in the jejunum and ileum and exceeded that of LPA; ligand property at LPA2 (FIG. 2B) [3]: agonist; inhibition of camptothecin-induced DNA fragmentation [4]: comparable to that of LPA but supersedes it at concentrations above 3 μM; ligand property at LPA3 (FIG. 2C) [5]: agonist |
| CCCCCCCCCCCCOP(=O)(O)O [FAP 12] |  | inhibition of camptothecin-induced DNA fragmentation [4]: inhibited |
| CCCCCCCCCCCCCCC(C(=O)O)C(=O)O [RxBVG-I-8, 2-Tetradecyl-malonic acid] | LPA2 agonist |  |
| CCCCCCCC(CCCCCCC)OP(=O)(O)O.N.N [RxBVG-I-27, Ammonium phosphoryl-mono-(1-heptyl-octyl) ester] | Pan antago- nist (LPA1/2/3) |  |
| CCCCCCCC(CCCCCCC)OP(O)(O)=S [RxBVG-I-28, Thiophosphoric acid O-(1-heptyl-octyl) ester] | Pan antago- nist (LPA1/2/3) |  |
| CCCCCCCCCCCCCCCCCCC(COP(O)(O)=S)COP(O)(O)=S.N [RxBVG-I-64, Ammonium thiophosphoryl-O-(2-thiophosphonooxymethyl-eicosyl) ester] | LPA3 agonist |  |
| CCCCCCCC/C=C/CCCCCCCCOP(O)(O)=S.N [RxBVG-I-67, Ammonium thiophosphoryl-O-octadec-9E-enyl ester] | LPA3 agonist |  |
| CCCCCC/C=C\CCCCCCCCOP(O)(O)=S.N [RxBVG-I-81, Ammonium thiophosphoryl-O-hexadec-9Z-enyl ester] | Pan antago- nist (LPA1/2/3) |  |
| CCCC/C=C\CCCCCCCCCOP(O)(O)=S.N [RxBVG-I-82, Ammonium thiophosphoryl-O-pentadec-10Z-enyl ester] | Pan antago- nist (LPA1/2/3) |  |
| CCCCC/C=C\C/C=C\CCCCCCCCOP(O)(O)=S [RxBVG-I-83, Ammonium thiophosphoryl-O-octadeca-9Z,12Z-dienyl ester] | LPA2 agonist |  |
| CCCCCCCCC1CC1CCCCCCCCOP(O)(O)=S.N (stereo not drawn) [RxBVG-I-93, Ammonium thiophosphoryl-O-[8-(2-octyl-cis-cyclopropyl)-octyl]ester] | LPA2 agonist | efficacy in DNA fragmentation assay [7]: even more efficacy than did oleoyl thiophosphate |
| BP(=O)(O)OCCCCCCCCCCCCCCCCCC [RxBVG-II-7, Potassium boranophosphoryl monooctadecyl ester] | LPA2 agonist |  |
| BP(=O)(O)OCCCCCCCCCCCCCC [RxBVG-II-9, Potassium boranophosphoryl monotetradecyl ester] | LPA2 agonist |  |
| BP(=O)(O)OCCCCCCCC [RxBVG-II-13, Potassium boranophosphoryl monooctyl ester] | LPA2 agonist |  |
| CCCCCCC1CC1CCCCCCCCOP(O)(O)=S.N (centres unmarked) [RxBVG-II-22, Ammonium thiophosphoryl-O-[8-(2-hexyl-cyclopropyl)-octyl]ester] | LPA2 agonist |  |
| [K+].[O-]P(O)(=S)OCCCCCCCCC1CC1 [RxBVG-II-23, Potassium thiophosphoryl-O-(8-cyclopropyl-octyl) ester] | LPA2 agonist |  |
| CCCCCCC1CC1CCCCCCCCCCOP([O-])(O)=S.[K+] (centres unmarked) [RxBVG-II-34, Potassium thiophosphoryl-O-[10-(2-hexyl-cyclopropyl)-decyl]ester] | LPA2 agonist |  |
| CCCCCC1CC1CC1CC1CCCCCCCCOP([O-])(O)=S.[K+] (centres unmarked) [RxBVG-II-35, Potassium thiophosphoryl-O-{8-[2-(2-pentyl-cyclopropylmethyl)-cyclopropyl]octyl}ester] | LPA2 agonist |  |
| CCCCCCCCC1CC1CCCCCCCCCCOP([O-])(O)=S.[K+] (centres unmarked) [RxBVG-II-36, Potassium thiophosphoryl-O-[10-(2-octyl-cyclopropyl)-decyl]ester] | LPA2 agonist |  |
| CCCCCCCC/C=C\CCCCCCCC(=O)OC[C@@H](O)COP(=O)(O)O [oleoyl-LPA] |  | inhibition of camptothecin-induced DNA fragmentation [4]: inhibited |
| Ammonium thiophosphoryl-O-eicos-11Z-enyl ester [RxBVG-I-77] | LPA2 agonist |  |
| Potassium boranophosphoryl monododecyl ester [RxBVG-II-11] | LPA2 agonist |  |
